Assay: GHS categories as the set defines them, by LD50: 1 up to 5, 2 up to 50, 3 up to 300, 4 up to 2000, 5 above 2000 mg/kg
Details: rat; in vivo; po

SMILES	GHS category
CCCCCCCCCCCCC	5
CN1C(=O)COc2cc(C(=O)c3ccccc3)ccc21	5
CCC1COC(Cn2cncn2)(c2cc3cc(Cl)cc(Cl)c3o2)O1 (stereo not drawn)	4
CCCCCCCCCC(OC)OC	5
Cn1cc(-c2ccccc2)c(=O)c(-c2cccc(C(F)(F)F)c2)c1	5
CCC(=O)OC1CC2CC1C1CC=CC21 (stereo not drawn)	5
CN1C(C(=O)Nc2ccccn2)=C(O)c2sc(O)cc2S1(=O)=O	3
CCOC(=O)/C=C(C)/C=C/CC(C)CCCC(C)C (stereo not drawn)	5
C[Si]1(C)O[Si](C)(C)O[Si](C)(C)O[Si](C)(C)O[Si](C)(C)O1	5
CC(C)Oc1ccc2c(c1)N(CCC1CCCCN1C)c1ccccc1S2 (stereo not drawn)	5
CCCCCCCCCCCCCCOC(=O)OOC(=O)OCCCCCCCCCCCCCC	5
CCC1(CC)COC(Cn2cncn2)(c2cc3ccccc3o2)OC1	4
CN(C)CCOc1nn(-c2cccc(C(F)(F)F)c2)c2ncccc12	4
C=C(C)CCCC(C)CCOC(C)=O (stereo not drawn)	5
COc1cc(NC(=O)C(/N=N/c2cc(OC)c(S(=O)(=O)Nc3ccccc3)cc2OC)C(C)=O)c(OC)cc1Cl (stereo not drawn)	5
O=C(CCS)OCC(COC(=O)CCS)(COC(=O)CCS)COC(=O)CCS	4
CC(O)C(C)O (stereo not drawn)	5
CC(C)=CCC(C#N)(CCN1CCCC1)c1cccc2ccccc12 (stereo not drawn)	4
CCCCCCOCC(OC)OC	5
CCCCCCCc1ccc(O)cc1	5
Cc1ccccc1OP(Oc1ccccc1C)Oc1ccccc1C	4
CCCOc1ccc(Cl)c2c(=O)c3ccccc3sc12	5
CC1CC(OC(=O)COc2cccc(C(F)(F)F)c2)CC(C)(C)C1 (stereo not drawn)	5
CC(CC(=O)OCCN1C(C)(C)CC(OC(=O)CC(C)CC(C)(C)C)CC1(C)C)CC(C)(C)C (stereo not drawn)	5

SMILES	GHS category
COc1nc(Nc2ccc(C=Cc3ccc(Nc4nc(OC)nc(N(CCO)CCO)n4)cc3S(=O)(=O)O)c(S(=O)(=O)O)c2)nc(N(CCO)CCO)n1	5
COc1ncc(F)c2nc(S(=O)(=O)Nc3c(F)cccc3F)nn12	5
CN1OCC(=Cc2cc(C(C)(C)C)c(O)c(C(C)(C)C)c2)C1=O	4
C=CC(C)(O)CCC=C(C)CC(C)C (stereo not drawn)	5
CC1(C)S[C@@H]2[C@H](NC(=O)C(C(=O)O)c3ccccc3)C(=O)N2[C@H]1C(=O)O (stereo partly drawn)	5
C=CCCCCC=C	5
CC(=O)Nc1c(I)c(NC(C)=O)c(I)c(C(=O)O)c1I	5
Cc1cccc2ncc(C(=O)Nc3ccccc3)c(=O)n12	3
CCCC/C=C/CC/C=C\CCCCCCOC(C)=O	5
CC1(C)COC(Cn2cncn2)(c2cc3cc(Cl)cc(Cl)c3o2)OC1	4
COCc1c(Cc2ccc(-c3ccccc3-c3nn[nH]n3)cc2)c(=O)nc2nc[nH]n12	4
CCCCCCCCCNP1(=S)OCc2cc([N+](=O)[O-])ccc2O1 (stereo not drawn)	3
O=C1OC(=O)c2c(Br)c(Br)c(Br)c(Br)c21	5
O=C(NC(=O)c1c(F)cccc1F)Nc1cc(Cl)c(F)c(Cl)c1F	5
CCCCCCCCC(=O)OCC(CC)(COC(=O)CCCCCCCC)COC(=O)CCCCCCCC	5
CCCCCCOC(=O)C(C)CC (stereo not drawn)	5
CC[n+]1c(-c2ccccc2)c2cc(N)ccc2c2ccc(N)cc21	5
Cc1cccc2ncc(C(=O)NC3CCCCCC3)c(=O)n12	3
CC(C)OC(=O)C=Cc1ccccc1	5
CC(C)(C)OP(=O)(O)OC(C)(C)C	5
COCc1ccc(C=O)o1	5
NCC1CCC(N)C(OC2C(N)CC(N)C(OC3OC(CO)C(O)C(N)C3O)C2O)O1 (stereo not drawn)	5
O=C(Nc1cc(Cl)c(Cl)cc1Cl)c1cc(Cl)cc(-c2ccccc2)c1O	5
CCN(CCOC(C)OCC(C)C)c1ccc(N=Nc2ccccc2)cc1 (stereo not drawn)	4

SMILES	GHS category
Cn1c(N)cc(=O)n(C)c1=O	5
CC(C)=CC(C)(C)CC(C)(C)C	5
COc1ccc(C=Nc2ccccc2C(=O)O)cc1	4
O=C1NC(=O)C(c2ccc(O)cc2)(c2ccc(O)c(Cl)c2)N1 (stereo not drawn)	5
CCCCCCCCCCOC(C)=O	5
C=CC(C)(O)CCC=C(C)CCC=C(C)C (stereo not drawn)	5
Cc1ccc(S(=O)(=O)NC(=O)Nc2cccc(OS(=O)(=O)c3ccc(C)cc3)c2)cc1	5
CCCCCCCCCCCCCCCC(=O)OC	5
O=C(O)c1nc(C(Cl)(Cl)Cl)n(-c2ccc(Cl)cc2Cl)n1	5
CC1(C)[C@H](C(=O)O[C@H](C#N)c2cccc(Oc3ccccc3)c2)[C@@H]1/C=C\C(=O)OC(C(F)(F)F)C(F)(F)F	5
CC(c1ccc(O)cc1)(c1ccc(O)cc1)c1ccc(O)cc1	5
CC(=O)OC1CCC2CCCCC2C1 (stereo not drawn)	5
CC#CCn1c(Br)nc2c1c(=O)[nH]c(=O)n2C	4
CN[C@@H]1[C@@H](O)[C@@H](O[C@@H]2[C@@H](O)[C@H](OC3OC(CN)=CCC3N)[C@@H](N)C[C@H]2N)OC[C@]1(C)O (stereo partly drawn)	5
CC1=C(NC(=O)O)/C(=N/C(=O)CN)C=CC1(NC(=O)O)c1cccc(C2=CC=C/C(=N\C(=O)CN)C2C)c1 (stereo not drawn)	5
CCOC(=O)C(=O)Nc1cc(SCCOC)nc(C)n1	4
O=C1OC(CN2CCOCC2)CC12CC(CN1CCOCC1)OC2=O (stereo not drawn)	5
CC(=O)CSc1nnnn1C	4
Cc1ccc(C(=O)c2ccc(CC(=O)NCC(=O)Nc3cccc(Cl)c3)n2C)cc1	4
COc1cc(NS(=O)(=O)c2ccc(N)cc2)ncn1	5
C[C@H]1c2cccc(O)c2C(=O)C2=C(O)[C@]3(O)C(=O)C(C(N)=O)=C(O)[C@@H](N(C)C)[C@@H]3[C@@H](O)[C@@H]21	5
CCC=CCCCCCCCC(=O)OC	5
CCCc1c(Cc2ccc(-c3ccccc3-c3nn[nH]n3)cc2)cnc2ncnn12	4
CNc1ccc(Cl)cc1C(=O)c1ccccc1Cl	5

SMILES	GHS category
CCOC(=O)C1=C(C)NC(C[P+](c2ccccc2)(c2ccccc2)c2ccccc2)=C(C(=O)OCC)C1c1cccc([N+](=O)[O-])c1 (stereo not drawn)	4
CC(C)C1C=C2CCC3C(C)(CO)CCCC3(C)C2CC1 (stereo not drawn)	5
CCCCCCCCCCCCCCCc1cccc(OC(=O)c2ccccc2OC(N)=O)c1	5
C[C@H]1CO[C@@](Cn2ccnc2)(c2cc3cc(Cl)cc(Cl)c3o2)O1	4
O=C1CCc2ccc(OCC(O)CN3CCC(c4ccccc4)CC3)cc2N1 (stereo not drawn)	4
CCCCCCCC/C=C\CCCCCCCC#N	5
O=S(=O)(O)c1cc(Nc2nc(Nc3ccccc3)nc(Nc3ccccc3)n2)ccc1C=Cc1ccc(Nc2nc(Nc3ccccc3)nc(Nc3ccccc3)n2)cc1S(=O)(=O)O	5
CCN(Cc1cccc(S(=O)(=O)O)c1)c1ccc(C(=C2C=CC(=[N+](CC)Cc3cccc(S(=O)(=O)O)c3)C=C2)c2ccc(O)cc2S(=O)(=O)[O-])cc1	5
COc1cc(NS(=O)(=O)c2ccccc2)c2c(c1N)C(=O)c1ccccc1C2=O	5
O=S(=O)(O)c1cc(O)ccc1O	5
Cc1cnc2c(C(=O)O)c(Cl)ccc2c1	5
CCCCOC(=O)c1ccc(-n2nc(OCCCN(C)C)c3ccccc32)cc1	4
CCCCCCCCCCCCCc1cccc(O)c1C(=O)O	4
O=C(O)C1CNC1	5
O=C(O)[C@H]1O[C@@H](O)[C@@H](O)[C@@H](O)[C@@H]1O	5
CC[C@H](c1ccc(O)cc1)[C@@H](CC)c1ccc(O)cc1	5
CCOC(=O)CCN(C(=O)c1ccc2c(c1)nc(CCl)n2C)c1ccccn1	4
C=C1C2CCC(C2)C1(C)C (stereo not drawn)	5
O=C=Nc1ccc(Br)cc1	5
CC(=O)OC(C)Cc1ccccc1 (stereo not drawn)	5
CCC(C(=O)Oc1cc(C)ccc1C(C)C)c1ccc(-c2ccccc2)cc1 (stereo not drawn)	5
CC(CC=O)CCCC(C)(C)O (stereo not drawn)	5
O=C(Nc1ccccc1)N(Cc1ccc(Cl)cc1)C1CCCC1	5
N[C@@H]1CONC1=O	5

SMILES	GHS category
O=S(=O)(O)c1ccc(/N=N/c2c(O)ccc3cc(S(=O)(=O)O)ccc23)cc1	5
CCOC(=O)CCn1c(=N)oc2ccccc21	4
CC(C=O)(CO)CO	5
Cc1ccccc1OC(=O)c1ccccc1OC(N)=O	5
CC(C)c1cc2c(cc1S(=O)(=O)O)[C@@]1(C)CCC[C@@](C)(C(=O)O)[C@@H]1CC2	5
CCCCCCCCO	5
c1ccc2oc(C3(Cn4ccnc4)OCCCO3)cc2c1	4
CC(C)CCOCCc1ccccc1	5
CCCCCC(=O)CC	5
CC(C)(CCn1c(=O)[nH]c2ccccc21)NCC(O)COc1cccc2ccccc12 (stereo not drawn)	5
O=[N+]([O-])c1ccc2c(c1)COP(=S)(NC1CCCCC1)O2 (stereo not drawn)	3
CC1(C)C[C@@H]1C(=O)N/C(=C\CCCCSC[C@H](N)C(=O)O)C(=O)O	5
COc1ccc(C2NC(=O)CCS2)cc1OC (stereo not drawn)	5
CCCCCCCCNC(C)C(O)c1ccc2c(c1)CCCS2 (stereo not drawn)	5
Cn1cc(C(=O)Cl)c(C(F)F)n1	5
CNC(=O)Nc1ccc(Cl)c(Cl)c1	4
CCN(CC)c1ccc(N=Nc2ncc([N+](=O)[O-])s2)cc1	5
CCN1CCN(C(=O)N[C@@H](C(=O)N[C@]2(OC)C(=O)N3C(C(=O)O)=C(CSc4nnnn4C)CS[C@@H]32)[C@H](C)O)C(=O)C1=O	5
CCOc1ccc(Nc2ccc(C(=C3C=CC(=[N+](CC)Cc4cccc(S(=O)(=O)[O-])c4)C=C3C)c3ccc(N(CC)Cc4cccc(S(=O)(=O)O)c4)cc3C)cc2)cc1	5
CCCCCCCCCCBr	5
Cc1cc(C(C)(C)C)c(O)c(C)c1CC#N	5
Cn1nnnc1SCCCC(=O)c1cccs1	4

Source: the CATMoS acute toxicity set (Mansouri et al. 2021)
